Assay results from publication PMC8201054, “A Novel Benzopyrane Derivative Targeting Cancer Cell Metabolic and Survival Pathways” (Cancers, 2021).

What was measured:
[1] = molecular target: T1, inositol-3-phosphate synthase (Homo sapiens, UniProt Q9NPH2); test: DARTS proteomics in HEK293T lysate ([…]); format: cell-based
T1 construct: gene ISYNA1
T1 sequence (Q9NPH2 1-558): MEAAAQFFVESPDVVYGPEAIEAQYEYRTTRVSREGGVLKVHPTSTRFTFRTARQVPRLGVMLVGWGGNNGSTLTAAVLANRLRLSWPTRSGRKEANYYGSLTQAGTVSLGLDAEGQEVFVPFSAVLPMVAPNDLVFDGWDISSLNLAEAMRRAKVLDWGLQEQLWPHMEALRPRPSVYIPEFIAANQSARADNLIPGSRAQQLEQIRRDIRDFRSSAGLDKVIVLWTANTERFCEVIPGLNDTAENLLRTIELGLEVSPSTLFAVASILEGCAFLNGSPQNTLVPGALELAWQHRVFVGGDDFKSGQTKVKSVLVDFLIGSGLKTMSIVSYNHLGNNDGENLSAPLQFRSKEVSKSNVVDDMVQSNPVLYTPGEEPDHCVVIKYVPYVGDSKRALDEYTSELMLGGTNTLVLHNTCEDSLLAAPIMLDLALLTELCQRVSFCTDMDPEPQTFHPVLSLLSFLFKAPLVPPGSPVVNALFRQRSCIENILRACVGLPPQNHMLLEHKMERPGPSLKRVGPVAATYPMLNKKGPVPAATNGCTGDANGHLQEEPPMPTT

[2] = molecular target: T2, thioredoxin reductase 1 (TrxR) (Homo sapiens, UniProt Q16881); test: DARTS proteomics in HEK293T lysate; TrxR activity assay in lysates of treated HCT116 cells; format: cell-based
T2 construct: gene TXNRD1
T2 sequence (Q16881 1-649): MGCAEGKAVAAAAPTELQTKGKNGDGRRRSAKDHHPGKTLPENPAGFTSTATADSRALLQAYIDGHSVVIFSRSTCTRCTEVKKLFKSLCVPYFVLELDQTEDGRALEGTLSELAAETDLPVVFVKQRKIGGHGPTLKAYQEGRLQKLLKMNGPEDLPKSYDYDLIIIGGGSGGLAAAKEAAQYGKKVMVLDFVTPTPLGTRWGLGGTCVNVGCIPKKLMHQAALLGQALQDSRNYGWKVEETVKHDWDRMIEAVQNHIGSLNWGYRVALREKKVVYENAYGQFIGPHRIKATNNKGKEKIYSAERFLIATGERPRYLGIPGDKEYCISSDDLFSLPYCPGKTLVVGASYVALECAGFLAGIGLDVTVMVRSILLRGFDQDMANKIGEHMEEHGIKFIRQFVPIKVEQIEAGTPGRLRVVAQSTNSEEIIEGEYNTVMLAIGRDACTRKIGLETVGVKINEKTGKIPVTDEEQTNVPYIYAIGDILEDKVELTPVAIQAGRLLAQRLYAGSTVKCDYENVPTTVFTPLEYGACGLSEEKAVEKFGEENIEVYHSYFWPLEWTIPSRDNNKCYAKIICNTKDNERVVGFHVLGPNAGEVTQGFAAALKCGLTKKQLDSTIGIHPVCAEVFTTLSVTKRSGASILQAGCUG

IC50 [2]: 2420 nM
SMILES: CC1(C)[C@H]2COc3ccc4ccccc4c3[C@H]2N=C2SC(c3ccccc3)=C(c3ccccc3)N21 [SIMR1281, (8aS,14aS)-9,9-dimethyl-11,12-diphenyl-8a,14a-dihydro-8H,9H-benzo[5, 6]chromeno[4,3-d]thiazolo[3,2-a]pyrimidine]
DARTS proteomics in HEK293T lysate (0.01-1 μM) [1]: SIMR1281 has shown a concentration-dependent affinity toward the inositol-3-phosphate synthase enzyme in the DARTS proteomic assay
